According to PubChem BioAssay (NCI):
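Dose response: 5 concentrations. Exposure: 48 h. Format: 96-well plates. Endpoint: linear interpolation; highest concentration if not reached. At the TGI there is no net growth.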

Tested on: P388 leukemia
Assay: NCI tumour cell line growth inhibition, 48 h

Structure (SMILES) | TGI [µM]
COC1/C=C/O[C@@]2(C)Oc3c(C)c(O)c4c(O)c(cc(O)c4c3C2=O)NC(=O)/C(C)=C\C=C\[C@H](C)C(O)[C@@H](C)[C@@H](O)[C@@H](C)[C@H](OC(C)=O)[C@@H]1C (some centres not stated) | 31.2
O=C(Cn1ccnc1[N+](=O)[O-])N(CCO)CCO | > 1250
